Data on one compound can be found in patent US10940113B2, “Pharmaceutical composition for colon targeting, method for treating a colon-related disease using the same and preparation method thereof” (priority 2017, dated 2021).

SMILES strings stand for the structures.

The test has as its system distal colitis induced via intracolonic injection of DNBS. The test is described as follows: DNBS-induced distal colitis animal test. In kind it is in vivo, Male Wistar mice. To be noted: 2 CAP qd × 7, PO, sacrificed at Day 8. Here is the method: […] were starved for 24 hr, and distal colitis was induced via intracolonic injection of DNBS (2,4-dinitrobenzene sulfonic acid, 30 mg in 0.5 mL ethanol (30%)). Then, 2 mL air was injected after instillation of the enema to ensure the solution was remained in the colon. The test substance (the pharmaceutical composition of Embodiment 3-1) and mesalamine were oral administered 24 hr and 2 hr prior to the DNBS injection, followed by administering one dose a day, and 5 days. The total doses of the test substance and mesalamine were 7 doses. The body weight, fecal occult blood and fecal consistency were recorded every day during the experiment. The animals were sacrificed at Day 8. The adhesions of colon and other organs were observed after abdominal opening, the colitis still can be observed, and the colon was carried out and weighted.

Consider `Nc1ccc(O)c(C(=O)O)c1` [Mesalamine, mesalamine], for which the Adhesion amounted to 0.0 ± 0.0, the Colon width worked out at 1.0 ± 0.0, the Strictures came to 2.6 ± 0.2 and the Ulcers/Inflammation stood at 3.2 ± 0.54.
